The results in this text go back to patent publication US11274101B2, “Heterocyclic compound” (Takeda Pharmaceutical Company Limited, priority 2017, dated 2022).

Data set [1] has as its system intracerebral 2-AG and arachidonic acid. Put plainly: Measurement of intracerebral 2-AG and arachidonic acid concentrations after oral administration. The note with it: for 2-AG concentration / arachidonic acid concentration: male C57BL/6J mice, 1 mg/kg by gavage, cerebrum isolated 1 hour after administration; for 2-AG concentration: control 13.5; for arachidonic acid concentration: control 203.1; for intracerebral 2-AG concentration compared to control / intracerebral arachidonic acid concentration compared to control / migration into brain: oral administration to C57BL/6J mice. The data set is classed as in vivo, mouse (C57BL/6J). Here is the method:
As the mouse, 8-week-old male C57BL/6J mice (CLEA Japan, Inc.) were used (6 mice/group). Administration solutions were prepared by suspending the test compounds (compound 1 (compound of Example 16), compound 2 (compound of Example 18) and compound 3 (compound of Example 46)) in 0.5% methylcellulose solution (Wako Pure Chemical Industries, Ltd.). The dose of the test compound was prepared to be 1 mg/kg body weight/10 mL. The test compounds were administered by gavage at 1 mg/kg body weight. The cerebrum was isolated after the administration of the test compound (isolation time after the administration of the test compound is shown in Table 3), and the cerebrum hemisphere was extracted. The obtained cerebrum hemisphere was frozen on dry ice, and the frozen tissue weight was measured.
The cerebral tissue was homogenized with 4-fold (v/w) of isopropanol (IPA), and double diluted with IPA. To the diluted sample (200 μL) was added internal standard solution (5 μL) ([5,6,8,9,11,12,14,15-D8]-(5Z,8Z,11Z,14Z)-5,8,11,14-eicosatetraenoic acid (AA-d8, 0.5 nmol/mL IPA) and [5,6,8,9,11,12,14,15-D8]-(5Z,8Z,11Z,14Z)-5,8,11,14-eicosatetraenoyl-2-glycerol ester (2-AG-d8, 0.5 nmol/mL IPA)), and the mixture was centrifuged at 15000 rpm for 5 min. The supernatant was injected to liquid chromatography mass spectrometer for quantitative analysis.
For liquid chromatography, Shimadzu LC20A system (Shimadzu Corporation) was used. The separation was performed by gradient elution method with mobile phase A (10 mmol/L HCOONH4/HCOOH (100:0.2, v/v)) and mobile phase B (ethanol/IPA (3:2, v/v)) using Shim-pack XR-ODS (2.2 μm, 2.0×30 mm, Shimadzu Corporation) at column temperature of 50° C., at flow rate of 0.5 mL/min. The gradient conditions are as follows: 0-1 min, 1% B; 1-1.2 min, 1-55% B; 1.2-2.7 min, 55-75% B; 2.7-3.5 min, 75-99% B; 3.5-6 min, 99% B; 6-8 min, 1% B.
For mass spectrometer, API5000 (AB SCIEX) was used. The eluate from the liquid chromatography was directly ionized by turbospray ionization method, where (5Z,8Z,11Z,14Z)5,8,11,14-eicosatetraenoic acid (AA) and AA-ds were measured by negative ionization mode, and (5Z,8Z,11Z,14Z)5,8,11,14-eicosatetraenoyl-2-glycerol ester (2-AG) and 2-AG-d8 were measured by positive ionization mode.
A solution for calibration curve was prepared to the concentration of 2, 5, 10, 20, 50, 100, 200, 500, 1000 nmol/mL of acetonitrile. These solutions (10 μL) was mixed with 200 μL of IPA and 5 μL of internal standard solution, and the mixture was centrifuged at 15000 rpm for 5 min, and the supernatant was injected to liquid chromatography mass spectrometer. Liner regression with 1/x^2 weighting was used for the calibration curve fitting, and the quantitativity was confirmed by accuracy of 100±20% and R^2>0.99.

Data set [2] concerns the target T1, His-hMAGL (recombinant polyhistidine tagged human MAGL protein) (Homo sapiens, UniProt Q99685).
T1 construct: made in house; host or cells: E. coli BL21(DE3)
T1 sequence (Q99685 1-303): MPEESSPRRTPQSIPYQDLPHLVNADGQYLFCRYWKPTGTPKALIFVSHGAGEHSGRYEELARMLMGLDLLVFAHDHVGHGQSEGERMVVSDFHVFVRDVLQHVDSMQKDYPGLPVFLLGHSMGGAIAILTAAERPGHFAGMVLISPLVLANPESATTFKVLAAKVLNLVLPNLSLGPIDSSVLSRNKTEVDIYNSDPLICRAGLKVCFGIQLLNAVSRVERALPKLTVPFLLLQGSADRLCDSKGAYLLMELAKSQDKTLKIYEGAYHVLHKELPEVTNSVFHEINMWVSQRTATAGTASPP
Put plainly: Measurement of MAGL inhibitory activity (arachidonic acid production from 2-arachidonylglycerol, RapidFire-mass spectrometry). The data set is classed as biochemical. The note with it: test compound 10 μM; MAGL inhibitory rate.

Turning to `O=C1NC2(CO1)CN(C(=O)O[C@H]1C[C@@H](COc3ccc(F)c(F)c3F)C1)C2` [Example 16, cis-3-((2,3,4-trifluorophenoxy)methyl)cyclobutyl 6-oxo-7-oxa-2,5-diazaspiro[3.4]octane-2-carboxylate], in data set [1], the 2-AG concentration is given as 82.3 nmol/g, the arachidonic acid concentration is 119.8 nmol/g, the “intracerebral 2-AG concentration compared to control” value was “increased” and the “intracerebral arachidonic acid concentration compared to control” value is on record as “decreased”. Further, the migration into brain result in data set [1] was “migrated into brain”. Besides, in data set [2], the inhibition at 10 µM came out at 100%.

Turning to `O=C1NC2(CO1)CN(C(=O)O[C@H]1C[C@@H](COc3c(F)cc(F)cc3F)C1)C2` [Example 18, cis-3-((2,4,6-trifluorophenoxy)methyl)cyclobutyl 6-oxo-7-oxa-2,5-diazaspiro[3.4]octane-2-carboxylate], in data set [1], the 2-AG concentration is on record as 128.7 nmol/g, the arachidonic acid concentration is recorded as 84.3 nmol/g, the “intracerebral 2-AG concentration compared to control” value was “increased” and the “intracerebral arachidonic acid concentration compared to control” value was “decreased”. Besides, in data set [1], the migration into brain result is given as “migrated into brain”. For the same molecule, in data set [2], the inhibition at 10 µM was determined as 102%.

Take `O=C1NC2(CO1)CN(C(=O)O[C@H]1C[C@@H](Oc3c(F)cc(F)cc3F)C1)C2` [Example 46, cis-3-(2,4,6-trifluorophenoxy)cyclobutyl 6-oxo-7-oxa-2,5-diazaspiro[3.4]octane-2-carboxylate]: in data set [1], the 2-AG concentration is recorded as 79.0 nmol/g, the arachidonic acid concentration is 138.0 nmol/g, the “intracerebral 2-AG concentration compared to control” value is recorded as “increased” and the “intracerebral arachidonic acid concentration compared to control” value is listed as “decreased”. The migration into brain result in data set [1] was “migrated into brain”. In data set [2], the inhibition at 10 µM stood at 102%.
